Source: patent US9611252B2 (LifeSci Pharmaceuticals, Inc., priority 2013, dated 2017)

Columns and labels:
kallikrein = kallikrein (Homo sapiens (Human), UniProt P03952); test: In vitro cellular assay (contact assay): kallikrein activity in ellagic acid-activated human plasma, substrate Z-FR-2-AMC; format: biochemical; details: human plasma activated with ellagic acid, Z-FR-2-AMC substrate, 37° C.; read-out: Contact Assay EC50
human Plasma Kallikrein = human Plasma Kallikrein (Homo sapiens (Human), UniProt P03952); test: In vitro enzyme inhibition of human plasma kallikrein (PFR-AMC cleavage); format: biochemical; details: human plasma kallikrein, Pro-Phe-Arg-AMC substrate, 37° C.; read-out: hPK IC50
How it was run: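 Compound pre-incubated with human plasma kallikrein 5 min at 37° C in 50 mM Tris-HCl pH 7.5, 150 mM NaCl, 0.01% Triton X-100. Reaction started with PFR-AMC, cleavage read kinetically at 37° C every 43 s for 1 h.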

Chain of kallikrein (P03952 20-638): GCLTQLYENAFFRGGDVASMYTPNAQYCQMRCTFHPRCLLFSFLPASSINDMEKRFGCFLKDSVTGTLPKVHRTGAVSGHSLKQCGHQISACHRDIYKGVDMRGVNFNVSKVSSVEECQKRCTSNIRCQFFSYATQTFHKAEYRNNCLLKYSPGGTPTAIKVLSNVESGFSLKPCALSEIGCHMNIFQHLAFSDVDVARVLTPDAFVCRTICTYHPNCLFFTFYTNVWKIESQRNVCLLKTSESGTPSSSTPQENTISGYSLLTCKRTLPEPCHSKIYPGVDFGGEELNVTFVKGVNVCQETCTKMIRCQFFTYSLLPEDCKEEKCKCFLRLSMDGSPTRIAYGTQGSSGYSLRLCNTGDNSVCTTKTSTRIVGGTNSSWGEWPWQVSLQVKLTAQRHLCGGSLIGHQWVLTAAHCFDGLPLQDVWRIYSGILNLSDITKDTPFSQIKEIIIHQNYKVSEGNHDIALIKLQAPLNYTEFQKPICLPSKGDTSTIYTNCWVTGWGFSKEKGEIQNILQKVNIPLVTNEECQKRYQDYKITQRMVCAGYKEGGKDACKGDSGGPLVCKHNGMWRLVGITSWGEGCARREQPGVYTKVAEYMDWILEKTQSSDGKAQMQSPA
Chain of human Plasma Kallikrein (P03952 20-638): as above

EC50 (kallikrein) [nM]	IC50 (human Plasma Kallikrein) [nM]	SMILES
< 100	< 100	Cc1cnc2c(S(C)(=O)=O)cc(Cc3cc(C(=O)NCc4n[nH]c5ccc(Cl)cc45)ccn3)cc2c1 [Example 20, N-((5-chloro-1H-indazol-3-yl)methyl)-2-((3-methyl-8-(methylsulfonyl)quinolin-6-yl)methyl)isonicotinamide]
< 100	< 100	Cc1cnc2c(C#N)cc(Cc3cc(C(=O)NCc4c(C)cc(N)nc4C)ccn3)cc2c1 [Example 70, N-((6-amino-2,4-dimethylpyridin-3-yl)methyl)-2-((8-cyano-3-methylquinolin-6-yl)methyl)isonicotinamide]

The remaining lines, values behind:

SMILES	EC50 (kallikrein) [nM]	IC50 (human Plasma Kallikrein) [nM]
Cc1ccc2ncc(Cc3cc(C(=O)NCc4c(C)cc(N)nc4C)ccn3)cc2c1 [Example 114, N-((6-amino-2,4-dimethylpyridin-3-yl)methyl)-2-((6-methylquinolin-3-yl)methyl)isonicotinamide]	< 100	< 100
Cc1cc2cc(Cc3cc(C(=O)NCc4c(C)cc(N)nc4C)ccn3)ccc2cn1 [Example 145, N-((6-amino-2,4-dimethylpyridin-3-yl)methyl)-2-((3-methylisoquinolin-6-yl)methyl)isonicotinamide]	< 100	< 100
Cc1nc(N)ccc1CNC(=O)c1ccnc(Cc2ccc3ncc(Cl)cc3c2)c1 [Example 34, N-((6-amino-2-methylpyridin-3-yl)methyl)-2-((3-chloroquinolin-6-yl)methyl)isonicotinamide]	< 100	< 100
NC(=O)c1cc(Cc2cc(C(=O)NCc3cc4cc[nH]c4cc3F)ccn2)cc2cc(Cl)cnc12 [Example 66, 3-chloro-6-((4-(((6-fluoro-1H-indol-5-yl)methyl)carbamoyl)pyridin-2-yl)methyl)quinoline-8-carboxamide]	100 to 1000	< 100
